From ChEMBL document CHEMBL2375237, “Optimization of allosteric MEK inhibitors. Part 1: Venturing into underexplored SAR territories” (Bioorg Med Chem Lett, 2013)
pIC50: −log10 of the molar value. Calls of active or inactive are those of the source. No cut-off for these calls is given here.

How the values were obtained:
[1] = target: Dual specificity mitogen-activated protein kinase kinase 1 (Homo sapiens, UniProt Q02750); test: Inhibition of MEK1 (unknown origin) after 2 hrs by fluorescence assay
A-375 = test: cells; conditions: Homo sapiens, A-375, 72 h
Description: Antiproliferative activity against human A375 cells expressing BRAF V600E mutant after 72 hrs by Cell titer-glo assay

HCT-116 [2] = test: Antiproliferative activity against human HCT116 cells expressing KRAS G13D mutant; type: functional, cell-based
[3] = Terminal half life in rat at 0.5 mg/kg, iv and 1 mg/kg, po; type: ADME, organism-based; conditions: in vivo, read-out: beta t1/2 (converted)
[4] = Ratio of AUC in mouse brain to AUC in mouse plasma at 5 mg/kg, iv up to 3 hrs; type: ADME, organism-based; set-up: dose 5 mg/kg, route intravenous; conditions: read-out: Ratio AUC
[5] = Oral bioavailability in rat at 1 mg/kg; type: ADME, organism-based; conditions: in vivo
[6] = Blood clearance in rat at 0.5 mg/kg, iv and 1 mg/kg, po; type: ADME, organism-based; conditions: whole blood
[7] = Volume of distribution at steady state in rat at 0.5 mg/kg, iv and 1 mg/kg, po; type: ADME, organism-based; conditions: in vivo, read-out: Vdss
A549 [8] = conditions: Homo sapiens
Description: Antitumor activity against human A549 cells xenografted in nude mouse assessed as tumor growth inhibition at 3 mg/kg, po qd

[9] = Volume of distribution at steady state in rat at 0.3 mg/kg, iv and 0.6 mg/kg, po; type: ADME, organism-based; conditions: in vivo, read-out: Vdss
[10] = Oral bioavailability in rat at 0.6 mg/kg; type: ADME, organism-based; conditions: in vivo
[11] = Terminal half life in rat at 0.3 mg/kg, iv and 0.6 mg/kg, po; type: ADME, organism-based; conditions: in vivo, read-out: beta t1/2 (converted)
Caco-2 = test: Efflux ratio of permeability in human Caco2 cells relative to control; type: ADME, cell-based
[12] = Blood clearance in rat at 0.3 mg/kg, iv and 0.6 mg/kg, po; type: ADME, organism-based; conditions: whole blood
[13] = Terminal half life in rat at 1 mg/kg, iv; type: ADME, organism-based; set-up: dose 1 mg/kg, route intravenous; conditions: in vivo, read-out: beta t1/2 (converted)
[14] = Drug metabolism in liver microsomes (unknown origin) assessed as demethylation of the sulfamide moiety; type: ADME, Microsome
[15] = Blood clearance in rat at 1 mg/kg, iv; type: ADME, organism-based; set-up: dose 1 mg/kg, route intravenous; conditions: whole blood
[16] = Drug metabolism in hepatocytes (unknown origin) assessed as demethylation of the sulfamide moiety; type: ADME, cell-based, Hepatocyte
[17] = Oral bioavailability in rat; type: ADME, organism-based; conditions: in vivo
[18] = Oral bioavailability in rat at 5 mg/kg; type: ADME, organism-based; conditions: in vivo
MIA PaCa-2 = test: Antiproliferative activity against human MIAPaCa2 cells; type: functional, cell-based
[19] = Terminal half life in rat at 0.5 mg/kg, iv and 5 mg/kg, po; type: ADME, organism-based; conditions: in vivo, read-out: beta t1/2 (converted)
[20] = Blood clearance in rat at 0.5 mg/kg, iv and 5 mg/kg, po; type: ADME, organism-based; conditions: whole blood
LoVo = test: Antiproliferative activity against human LoVo cells; type: functional, cell-based
A549 [21] = test: Antiproliferative activity against human A549 cells; type: functional, cell-based
[22] = Volume of distribution at steady state in rat at 0.5 mg/kg, iv and 5 mg/kg, po; type: ADME, organism-based; conditions: in vivo, read-out: Vdss
A549 [23] = conditions: Homo sapiens; remark: listed apart in the source
Description: Antitumor activity against human A549 cells xenografted in nude mouse assessed as tumor growth inhibition at 1 mg/kg, po qd

[24] = Terminal half life in mouse; type: ADME, organism-based; conditions: in vivo, read-out: beta t1/2 (converted)
[25] = Terminal half life in rat at 1 mg/kg, iv and 1 mg/kg, po; type: ADME, organism-based; conditions: in vivo, read-out: beta t1/2 (converted)
[26] = Terminal half life in dog; type: ADME, organism-based, Canis lupus familiaris; conditions: in vivo, read-out: beta t1/2 (converted)
[27] = Blood clearance in rat at 1 mg/kg, iv and 1 mg/kg, po; type: ADME, organism-based; conditions: whole blood
A549 [28] = conditions: Homo sapiens; remark: listed apart in the source
Description: Antitumor activity against human A549 cells xenografted in nude mouse assessed as tumor growth inhibition at 1 mg/kg, po administered every other day

[29] = Volume of distribution at steady state in rat at 1 mg/kg, iv and 1 mg/kg, po; type: ADME, organism-based; conditions: in vivo, read-out: Vdss
HCT-116 [30] = test: Ratio of AZD6244 IC50 to compound IC50 for human HCT116 cells expressing KRAS G13D mutant; type: functional

Sequence of Dual specificity mitogen-activated protein kinase kinase 1 (Q02750 whole entry): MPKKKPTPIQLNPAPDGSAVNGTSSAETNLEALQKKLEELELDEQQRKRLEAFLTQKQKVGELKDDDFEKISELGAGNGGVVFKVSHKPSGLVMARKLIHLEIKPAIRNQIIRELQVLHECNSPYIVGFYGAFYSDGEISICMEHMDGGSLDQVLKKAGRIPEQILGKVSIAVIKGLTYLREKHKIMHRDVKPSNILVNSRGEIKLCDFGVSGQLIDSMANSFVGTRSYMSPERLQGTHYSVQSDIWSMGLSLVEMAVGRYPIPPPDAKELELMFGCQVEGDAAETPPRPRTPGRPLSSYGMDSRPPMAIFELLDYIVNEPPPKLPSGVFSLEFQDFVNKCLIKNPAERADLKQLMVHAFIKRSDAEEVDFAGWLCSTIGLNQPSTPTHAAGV

Row | pIC50 [1] | pIC50 (A-375) | pIC50 (HCT-116 [2]) | Structure (SMILES) | further results
1 | – | 6.83 | 5.47 | NC(=O)c1c(Nc2ccc(I)cc2F)cc(F)cc1OCC[C@@H](O)CO | half-life [3]: 2.4 h; Kp at 3 h [4]: 0.73; bioavailability [5]: 70%; clearance [6]: 24.8 mL/min/kg; Vd [7]: 4.4 L/kg
2 | 7.20 | 6.46 | – | NC(=O)c1c(Nc2ccc(I)cc2F)cc(F)cc1OC[C@H](O)CCO | –
3 | – | 6.49 | – | CCS(=O)(=O)N1CCC[C@H]1COc1cc(F)cc(Nc2ccc(I)cc2F)c1C(N)=O | –
4 | 7.59 | 6.91 | 5.52 | NC(=O)c1c(Nc2ccc(I)cc2F)cc(F)cc1OC[C@@H]1CCCN1 | –
5 | 7.49 | 7.43 | 5.46 | NC(=O)c1c(Nc2ccc(I)cc2F)cc(F)cc1Oc1cccc(CS(N)(=O)=O)c1 | –
6 | – | 6.01 | – | CN1CCC[C@H]1COc1cc(F)cc(Nc2ccc(I)cc2F)c1C(N)=O | –
7 | 6.00 | 5.95 | – | CN(C)S(=O)(=O)N1CCC[C@H]1COc1cc(F)cc(Nc2ccc(I)cc2F)c1C(N)=O | –
8 | – | 6.62 | – | NC(=O)c1c(Nc2ccc(I)cc2F)cc(F)cc1OCC[C@H](O)CO | –
9 | 7.14 | 6.76 | 5.52 | NC(=O)c1c(Nc2ccc(I)cc2F)cc(F)cc1OC[C@@H]1CCCN1S(N)(=O)=O | –
10 | 7.85 | 8.40 | 6.74 | NC(=O)c1c(Nc2ccc(I)cc2F)cc(F)cc1Oc1cccc(NS(N)(=O)=O)c1 | TGI (A549 [23]): Active; half-life [24]: 34 h; pIC50 (MIA PaCa-2): 7.64; half-life [25]: 32 h; Kp at 3 h [4]: < 0.02; half-life [26]: 110 h; clearance [27]: 0.5 mL/min/kg; pIC50 (LoVo): 6.76; bioavailability [5]: 62%; TGI (A549 [28]): Active; pIC50 (A549 [21]): 6.88; Vd [29]: 2 L/kg; Ratio IC50 (HCT-116 [30]): >=10
11 | 7.13 | 6.45 | – | COc1cc(F)cc(Nc2ccc(I)cc2F)c1C(N)=O | –

The remaining lines, values behind:

Row | Structure (SMILES) | pIC50 [1] | pIC50 (A-375) | pIC50 (HCT-116 [2]) | further results
12 | NC(=O)c1c(Nc2ccc(I)cc2F)cc(F)cc1Oc1cccnc1 | 7.12 | 6.85 | 5.38 | –
13 | NC(=O)c1c(Nc2ccc(I)cc2F)cc(F)cc1OCC[C@@H](O)Cn1cccn1 | 7.89 | 6.82 | 5.68 | –
14 | NC(=O)c1c(Nc2ccc(I)cc2F)cc(F)cc1Oc1cccc(NS(=O)(=O)N2CCCC2)c1 | 7.68 | 7.55 | 6.39 | –
15 | NC(=O)c1c(Nc2ccc(I)cc2F)cc(F)cc1Oc1ccc2oc(=O)[nH]c2c1 | 7.44 | 7.46 | 5.35 | –
16 | CC(O)(CO)CCOc1cc(F)cc(Nc2ccc(I)cc2F)c1C(N)=O (stereo unspecified) | – | 6.62 | – | –
17 | CS(=O)(=O)Nc1cccc(Oc2cc(F)cc(Nc3ccc(I)cc3F)c2C(N)=O)c1 | 7.68 | 7.64 | 5.42 | –
18 | CC(=O)Nc1ccc(Oc2cc(F)cc(Nc3ccc(I)cc3F)c2C(N)=O)cc1 | 6.27 | 6.09 | – | –
19 | CNS(=O)(=O)Nc1cccc(Oc2cc(F)cc(Nc3ccc(I)cc3F)c2C(N)=O)c1 | – | 7.80 | 6.99 | –
20 | O=C(NOC[C@H](O)CO)c1ccc(F)c(F)c1Nc1ccc(I)cc1F [MIRDAMETINIB] | – | – | – | half-life [3]: 5.4 h; TGI (A549 [8]): Active; bioavailability [5]: 104%; clearance [6]: 8.33 mL/min/kg; Vd [7]: 1.7 L/kg
21 | NC(=O)c1c(Nc2ccc(I)cc2F)cc(F)cc1OCC[C@@H](O)Cn1ccnc1 | 7.80 | 7.01 | 5.90 | Vd [9]: 10.3 L/kg; bioavailability [10]: 20%; Kp at 3 h [4]: 0.04; half-life [11]: 8.4 h; fold change (FC) (Caco-2): 10; clearance [12]: 9.67 mL/min/kg
22 | NC(=O)c1c(Nc2ccc(I)cc2F)cc(F)cc1Oc1ccccc1 | 7.00 | 6.39 | – | –
23 | CC(C)C(=O)Nc1cccc(Oc2cc(F)cc(Nc3ccc(I)cc3F)c2C(N)=O)c1 | 7.32 | 6.72 | 5.06 | –
24 | CC(C)(O)C(O)CCOc1cc(F)cc(Nc2ccc(I)cc2F)c1C(N)=O (stereo unspecified) | 7.37 | 7.40 | 5.61 | –
25 | CN(C)S(=O)(=O)Nc1cccc(Oc2cc(F)cc(Nc3ccc(I)cc3F)c2C(N)=O)c1 | 7.68 | 7.74 | 6.81 | half-life [13]: 2.2 h; Drug metabolism [14]: Active; clearance [15]: 35 mL/min/kg; Drug metabolism [16]: Active; bioavailability [17]: 55%
26 | NC(=O)c1c(Nc2ccc(I)cc2F)cc(F)cc1Oc1ccc2cn[nH]c2c1 | 7.27 | 6.66 | – | –
27 | CCS(=O)(=O)Nc1cccc(Oc2cc(F)cc(Nc3ccc(I)cc3F)c2C(N)=O)c1 | 7.82 | > 7.52 | 6.54 | –
28 | CC(=O)Nc1cccc(Oc2cc(F)cc(Nc3ccc(I)cc3F)c2C(N)=O)c1 | – | 7.30 | 5.64 | –
29 | Cn1cnc2c(F)c(Nc3ccc(Br)cc3Cl)c(C(=O)NOCCO)cc21 [SELUMETINIB] | – | 7.51 | 5.51 | bioavailability [18]: 14%; pIC50 (MIA PaCa-2): 6.85; Kp at 3 h [4]: < 0.02; half-life [19]: 3.8 h; clearance [20]: 1 mL/min/kg; pIC50 (LoVo): 5.55; pIC50 (A549 [21]): 5.76; Vd [22]: 0.2 L/kg
30 | CC(C)S(=O)(=O)Nc1cccc(Oc2cc(F)cc(Nc3ccc(I)cc3F)c2C(N)=O)c1 | 7.74 | 7.77 | 6.34 | –
